The values below are quoted from earlier work in patent publication US20080260771A1, “PROSTATE DISORDER(S) PHYTO-NUTRACEUTICAL SYNERGISTIC COMPOSITION” (priority 2006, published 2008).

Data set [1] relates to prostate cancer. The settings on record: supranutritional doses of selenium, clinical trials.
In data set [2] the test system is human prostate cancer cells. The settings on record: not in normal prostate epithelial cells.
Data set [3] relates to prostate tumor.

As to `[Se]` [Selenium], the “reduction of prostate cancer incidence” value in data set [1] is 50%. In data set [2], the apoptotic death result is given as “induces rapid apoptotic death”.
As to Vitamin E, in data set [3], the “tumor growth and lung metastases” value was “significantly suppressed tumor growth”.
